Experimental data taken from PubChem BioAssay (NCI).
Values joined by “and” are separate entries in the source; they are usually repeats but may differ in a detail not shown here. Equal entries are not always repeated.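 1) Cells in 96-well plates. 2) Compound, 48 h, 5 concentrations. 3) Linear interpolation between surrounding doses. 4) Unreached endpoint = highest concentration. GI50: concentration for 50% inhibition of growth. At the TGI there is no net growth.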

Key:
Assay in all cases: DTP human tumour cell line panel, 48 h
DU-145 prostate = system: DU-145 prostate
IGROV1 ovarian = system: IGROV1 ovarian
KM12 colon = system: KM12 colon
MDA-MB-435 = system: MDA-MB-435
OVCAR-4 ovarian = system: OVCAR-4 ovarian
OVCAR-5 ovarian = system: OVCAR-5 ovarian
OVCAR-8 ovarian = system: OVCAR-8 ovarian
SK-MEL-2 melanoma = system: SK-MEL-2 melanoma
SN12C renal = system: SN12C renal
PC-3 prostate = system: PC-3 prostate

SMILES | TGI (DU-145 prostate) | TGI (IGROV1 ovarian) | TGI (KM12 colon) | TGI (MDA-MB-435) | TGI (OVCAR-4 ovarian) | TGI (OVCAR-5 ovarian) | TGI (OVCAR-8 ovarian) | TGI (SK-MEL-2 melanoma) | TGI (SN12C renal) | TGI (PC-3 prostate) | GI50 (DU-145 prostate) | GI50 (IGROV1 ovarian) | GI50 (KM12 colon) | GI50 (OVCAR-4 ovarian) | GI50 (OVCAR-8 ovarian) | GI50 (PC-3 prostate) | GI50 (SK-MEL-2 melanoma) | GI50 (SN12C renal) | GI50 (MDA-MB-435) | GI50 (OVCAR-5 ovarian)
COc1cccc2c1C(=O)C=CC2=O | 33.5 µM | 27.2 µM | 25 µM | 26.2 µM | 3.77 µM | 33 µM | 9.97 µM | 19.8 µM | 27.4 µM |  |  |  |  |  |  |  |  |  |  | 
CN(Cc1cnc2nc(N)nc(N)c2n1)c1ccc(C(=O)NC(CCC(=O)O)C(=O)O)cc1C(F)(F)F (stereo not drawn) | > 100 µM | > 100 µM | > 100 µM | > 100 µM | > 100 µM | > 100 µM | > 66.7 µM | > 100 µM |  | > 100 µM |  |  |  |  |  |  |  |  |  | 
Cc1ccc2c(c1)C(C)Cc1c(ncnc1-n1cnc3ccccc31)N2C (stereo not drawn) | 14.4 µM | 28.4 µM | 16.6 µM |  | 22.5 µM |  | 32.7 µM | 21.9 µM | 21.9 µM | 36.4 µM | 0.529 µM | 1.17 µM | 0.434 µM | 2.51 µM | 0.592 µM | 0.284 µM | 0.547 µM | 0.915 µM |  | 
CCOc1ccccc1NC(=O)CC1C(=O)Nc2ccccc2S1=O (stereo not drawn) |  | > 100 µM |  |  | > 100 µM | > 100 µM | > 100 µM | > 100 µM | > 100 µM |  |  |  |  |  |  |  |  |  |  | 
CC1CC(C2=CC=CCS2)=Nc2ccccc2S1 (stereo not drawn) |  | > 100 µM | > 100 µM |  | > 100 µM | > 100 µM | > 100 µM | > 100 µM | > 100 µM |  |  |  |  |  |  |  |  |  |  | 
CN1N=CSC12C(=O)N(c1ccc(Cl)cc1)C(=O)N2c1ccc(Cl)cc1 (stereo not drawn) |  | > 100 µM | 30.3 µM |  | > 100 µM |  | > 100 µM |  | > 100 µM |  |  |  |  |  |  |  |  |  |  | 
COc1cc(C2c3[nH]c4ccccc4c3C[C@H]3COC(=O)N23)cc(OC)c1OC (stereo partly drawn) | 6.25 µM | > 100 µM | 1.68 µM | 0.0494 µM | > 100 µM |  | 1.71 µM and 0.389 µM | > 100 µM | > 100 µM |  |  | 0.0655 µM and < 0.01 µM |  | 0.507 µM | < 0.01 µM | < 0.01 µM | < 0.01 µM | 0.0471 µM |  | 
COc1ccccc1/C=C(\C#N)c1ccccc1 |  | > 100 µM | > 100 µM |  | > 100 µM | > 100 µM | > 100 µM | 94.8 µM | > 100 µM |  |  |  |  |  |  |  |  |  |  | 
O=C(Nc1ccccc1-c1n[nH]c(=S)[nH]c1=O)C(F)(F)F |  | > 100 µM | > 100 µM |  | > 100 µM | > 100 µM | > 100 µM | > 100 µM | > 100 µM |  |  |  |  |  |  |  |  |  |  | 
N#Cc1ccccc1NC(=O)/C(=N\N)C(C(=O)c1ccncc1)C1OC(=O)c2ccccc21 (stereo not drawn) |  | > 100 µM | > 100 µM |  | > 100 µM | > 100 µM | > 100 µM | > 100 µM | > 100 µM |  |  |  |  |  |  |  |  |  |  | 
O=C(Nc1ccc(Cl)cc1Cl)C1C(=O)N(c2ccc(Cl)cc2Cl)C(=O)/C1=N\Nc1ccc([N+](=O)[O-])cc1[N+](=O)[O-] (stereo not drawn) |  | > 100 µM | > 100 µM |  | > 100 µM | > 100 µM | > 100 µM | > 100 µM | > 100 µM |  |  |  |  |  |  |  |  |  |  | 
CC(NS(=O)(=O)c1ccc([N+](=O)[O-])cc1)C(=O)O (stereo not drawn) |  | > 100 µM | > 100 µM |  | > 100 µM | > 100 µM | > 100 µM | > 100 µM | > 100 µM |  |  |  |  |  |  |  |  |  |  | 
COC(=O)C1=C(c2ccc(OC)c(OC)c2)OC(c2ccc(OC)c(OC)c2)C1 (stereo not drawn) |  | > 100 µM | > 100 µM |  | > 100 µM | > 100 µM | > 100 µM | > 100 µM | > 100 µM |  |  |  |  |  |  |  |  |  |  | 
COc1cc(/C=C/c2ccncc2)cc(OC)c1OC |  | > 100 µM | > 100 µM |  | > 100 µM | 97.9 µM | > 100 µM |  | > 100 µM |  |  |  |  |  |  |  |  |  |  | 
CC(C)(C)NNC(=O)/C(=C/c1ccc([N+](=O)[O-])cc1)NC(=O)c1ccccc1 |  | > 100 µM | > 100 µM |  | > 100 µM | > 100 µM | > 100 µM | > 100 µM | > 100 µM |  |  |  |  |  |  |  |  |  |  | 
C/C(CN1C(=O)c2ccccc2C1=O)=N\NS(=O)(=O)c1ccc(C)cc1 |  | > 100 µM | > 100 µM |  | > 100 µM | > 100 µM | > 100 µM | > 100 µM | > 100 µM |  |  |  |  |  |  |  |  |  |  | 
NCCNc1c2c(c(NCCN)c3c(CO)c[nH]c13)C(=O)c1ccccc1C2=O | > 100 µM | > 100 µM | > 100 µM | > 100 µM | > 100 µM | > 100 µM | 47.2 µM |  | 12.8 µM | > 100 µM | 12 µM | 15 µM | 17.3 µM | 38.3 µM | 5.26 µM | 20.1 µM |  | 1.59 µM | 28.7 µM | 48.7 µM
N=C(N)c1ccc(OCc2cccc(COc3ccc(C(=N)N)cc3)c2)cc1 | 20.3 µM | > 100 µM |  | 11.8 µM | 99.6 µM | > 100 µM | 38.4 µM | > 100 µM | 13.1 µM | 25.8 µM | 6.12 µM | 22.2 µM |  | 14.1 µM | 11.3 µM | 12.4 µM | 24.2 µM | 2.68 µM | 4.01 µM | 29.1 µM
C[N+](C)(C)CC1CCCC/C1=N\OC(=O)c1ccccc1 (stereo not drawn) |  | > 100 µM | > 100 µM |  | > 100 µM | > 100 µM | > 100 µM |  | > 100 µM |  |  |  |  |  |  |  |  |  |  | 
CN1C(=O)CC(c2cccc(C3CC(=O)N(C)C3=O)n2)C1=O (stereo not drawn) |  | > 100 µM | > 100 µM |  | > 100 µM | > 100 µM | > 100 µM | > 100 µM | > 100 µM |  |  |  |  |  |  |  |  |  |  | 
O=C(Nc1c(O)[nH]c(=S)[nH]c1=O)c1ccccc1F |  | > 100 µM | > 100 µM |  | > 100 µM | > 100 µM | > 100 µM | > 100 µM | > 100 µM |  |  |  |  |  |  |  |  |  |  | 
NC1=NC(=O)/C(=C/c2ccccc2[N+](=O)[O-])C(N)=N1 |  | > 100 µM | > 100 µM |  | > 100 µM | > 100 µM | > 100 µM | > 100 µM | > 100 µM |  |  |  |  |  |  |  |  |  |  | 
CC1CC[C@]2(C(=O)O)CCC3(COC(=O)/C=C\c4ccc(O)cc4)C(=CCC4[C@@]5(C)CC[C@H](O)C(C)(C)C5CC[C@]43C)[C@@H]2[C@H]1C (stereo partly drawn) |  | 26.8 µM | 25.7 µM |  | > 100 µM | 48.9 µM | 46.3 µM | 51.8 µM | 54.2 µM |  |  |  |  |  |  |  |  |  |  | 
